Assay results from patent US7884067B2, “Peptides derived from cadherin and methods of use thereof” (Mount Sinai School of Medicine of New York University, priority 2001, dated 2011).

Tests used:
[1] = tested on: E-cadherin; assay: E-cadherin cleavage in staurosporine-treated (apoptotic) A431 cells (Western blot); format: cell-based, human
Protocol: Cell Cultures and transfections. Cells were grown in Dulbecco's Modified Eagle Medium (DMEM) plus 10% fetal bovine serum, penicillin and streptomycin in 5% CO2 at 37° C. […] A431 cells were from American Type Culture Collection. […] A431D cells stably transfected with wild-type or GGG759-761AAA mutant E-cadherin were provided by Dr. A. B. Reynolds.
(§1) Immunoprecipitations (IPs), immunoblotting, immunofluorescence and confocal microscopy. For WB analysis of cell extracts, cells were washed with PBS and then solubilized in RIPA buffer. For IPs cells were solubilized in Hepes buffer (25 mM Hepes [pH 7.4], 150 mM NaCl, 1× Complete protease inhibitor cocktail, Roche) containing 1% digitonin (IPs with I-R222 and PI-R222 antibodies) or 1% Triton X-100 (IPs with β-catenin and desmoglein antibodies). Following centrifugation at 17,000×g for 10 min, supernatants (1 mg protein) were pre-cleared with protein A- or protein G-agarose (Pierce) for 2 hours. Supernatants were then incubated with antibodies overnight at 4° C. and treated for 2 hours with protein A-agarose (polyclonal antibodies) or with protein G-agarose (monoclonal antibodies). IPs were washed with Hepes buffer containing either 1% digitonin or 1% Triton X-100 and analyzed by SDS-PAGE. Immunofluorescence and confocal microscopy was performed as described by Georgakopoulos et al., (1999). Briefly, cells were plated on 22×22 mm collagen-coated glass coverslips, fixed in cold methanol for 10 min at −20° C. Following washing in TBS (25 mM Tris-HCl [pH 7.4], 150 mM NaCl), cells were treated with 10% goat serum in SuperBlock (Pierce) for 1 hour, incubated overnight with primary antibody (1:100), washed in TBS and then were incubated with species specific Alexa Fluor™ secondary antibody conjugates (Molecular Probes). Cells were washed with TBS, mounted with Prolong antifade kit (Molecular Probes), and photographed on a Leica confocal laser scanning microscope.
Conditional media (20 μl) from A431 cells cultured in the absence or presence of […] and treated with SDS as above were probed on Western blots with anti-E-cadherin ectodomain antibody H108.

[2] = tested on: N-cadherin; assay: N-cadherin processing in fibroblast cultures (Western blot, C32); format: cell-based, mouse; conditions: GM6001, FIG. 7B lanes 5 and 6
Protocol: Extracts from PS1+/+ or PS1−/− mouse embryos were probed on WBs with either anti-cytoplasmic N-cadherin antibody (FIG. 7A, upper panel) or anti-PS I/CTF antibody 33B10 (FIG. 7A, lower panel). Extracts from PS1+/+ or PS1−/− fibroblast cultures were incubated for 16 hours in the absence or presence of DMSO, L-685,458 (0.5 μM) and probed on WBs with either C32 or 33B10 antibodies.

[3] = tested on: N-cadherin; assay: N-Cad/CTF2 production in rat primary neuronal cultures after stimulation; format: cell-based; parameters: N-Cad/CTF2 production on stimulation / K+-induced increase in N-Cad/CTF2 / L-glutamate-induced increase in N-Cad/CTF2: unit of the concentration uncertain; conditions: for N-Cad/CTF2 production on stimulation: 15 minutes stimulation with KCl (50 (unit uncertain)), L-Glutamate (50 (unit uncertain)) or NMDA (50 (unit uncertain))
Protocol: Primary, neuronal cultures. Mixed hippocampal and cortical neuronal cultures were prepared from E18 mouse or rat brains as described by Banker and Goslin (1991) Culturing Nerves Cells, London, MIT Press. Neurons were maintained 10 days in vitro in glial conditioned MEM containing 2% glucose and N2 supplements as described by Bottenstein and Sato (1979) Proc. Natl. Acad. Sci. USA 76: 514-517, and then were stimulated for 15 minutes with Mg2+-free Hanks' balanced salt solution (HBSS, Sigma) containing KCl (50 mM), L-Glutamate ([…]) or NMDA ([…]). D-APV ([…]) was applied 15 minutes before stimulation.
In vitro γ-secretase-like ε-cleavage assay. Cells were washed in PBS, resuspended in 1 ml of 4° C. hypotonic buffer (10 mM MOPS, pH 7.0, 10 mM KCl) and homogenized on ice. A post-nuclear supernatant was prepared by centrifugation at 1000×g for 15 minutes at 4° C. Crude membranes were isolated from the post-nuclear supernatant by centrifugation at 16,000×g for 40 minutes at 4° C. The membranes were then resuspended in […] of assay buffer (150 mM sodium citrate, pH 6.4, 1× Complete protease inhibitor cocktail), and incubated at 37° C. for 2 hours. Samples were either analyzed directly by WB or separated into pellet (P100) and supernatant (S100) fractions by ultracentrifugation for 1 hour at 100,000×g at 4° C. The S100 and P100 fractions were then analyzed by WB.
Rat brain neurons were pre-incubated in the absence (−) or presence (+) of D-APV and then stimulated with either KCl, L-glutamate (L-gly) or NMDA. Membranes from these neurons were used in in vitro assays for production of N-Cad/CTF2.

[4] = tested on: A431 cells; assay: Laser scanning confocal microscopy of ionomycin-induced cell-cell dissociation; format: cell-based, human; conditions: ionomycin 45 minutes
Protocol: as §1
The PS1/γ-secretase role in the disassembly of CAJ was further examined using laser scanning confocal microscopy (LSCM). A431 cells were pre-incubated for 30 minutes in the absence or presence of L-685,458 and then treated for 45 minutes with ionomycin. Following the ionomycin-induced cell-cell dissociation, the distribution of PS1, E-cadherin, β-catenin and α-catenin was analyzed by LSCM using the constant detector setting. […]

[5] = tested on: E-cadherin/catenin cytoskeletal complex; assay: Ionomycin-induced CAJ disassembly in A431 cells, subcellular fractionation and Western blot; format: cell-based, human; conditions: ionomycin 10 μM, absence of inhibitor
Protocol: Subcellular fractionation. Confluent A431 cells (one 100 mm dish) were rinsed and scraped with 4° C. phosphate-buffered saline (PBS). Cells were then placed into 1 ml of buffer A (20 mM Tris-HCl [pH 7.5], 0.25 M sucrose, 10 mM EGTA, 2 mM EDTA, 1× Complete protease inhibitor cocktail, Roche), passed through a 27 gauge needle 10 times, and the obtained cell lysate was centrifuged at 500×g for 10 min at 4° C. The supernatant was then centrifuged at 120,000×g for 45 min at 4° C. to separate the cytosolic and crude membrane fractions. The pellet (crude membrane fraction) was washed twice with buffer A and resuspended by sonication in […] of buffer A containing 1% Triton X-100. The suspension was incubated at 4° C. for 30 min and then centrifuged at 120,000×g for 45 min at 4° C. to separate the membrane and Triton X-100-insoluble fractions. The pellet (Triton X-100-insoluble fraction) was washed twice with buffer A and solubilized by sonication in RIPA buffer. […] of proteins from the different fraction were analyzed by SDS-PAGE.
In stable cell-cell adhesion, the E-cadherin/β-catenin complex of the CAJ is anchored to the actin cytoskeleton via catenin and this association is manifested by the insolubility of the complex components in Triton X-100 (Baki et al., (2001)). Induction of apoptosis or calcium influx disrupts cadherin-mediated cell-cell adhesion by cleaving cadherin and disassembling the CAJ complexes. To determine whether the γ-secretase cleavage of E-cadherin is involved in the CAJ disassembly, calcium influx was induced with ionomycin (10 μM) in A431 cells preincubated for 30 minutes in the absence or presence of the γ-secretase inhibitor L-685,458. Cell extracts were fractionated, and analyzed on Western blots with antibodies against cytoplasmic E-cadherin C36 or β- and α-catenins. […] In addition, L-685,458 delayed the ionomycin-induced decrease of cytoskeletal β-catenin and α-catenin and inhibited their release to the soluble cytosol.

[6] = tested on: E-cadherin; assay: Ionomycin treatment of A431D cells transfected with WT or GGG759-761AAA mutant E-cadherin; format: cell-based; conditions: ionomycin 45 minutes
Protocol: Cell Cultures and transfections. Cells were grown in Dulbecco's Modified Eagle Medium (DMEM) plus 10% fetal bovine serum, penicillin and streptomycin in 5% CO2 at 37° C. Fibroblast cell lines derived either from wild-type (WT) (PS1+/+) or PS1 knock-out (PS1−/−) mice were stably transfected with human E-cadherin as described by Baki et al., (2001). A431 cells were from American Type Culture Collection. Stable transfectants of PS1 cDNA in HEK293 cells were prepared as described by Georgakopoulos et al., (1999). A431D cells stably transfected with wild-type or GGG759-761AAA mutant E-cadherin were provided by Dr. A. B. Reynolds.
A431D cells stably transfected with WT E-cadherin or with the E-cadherin mutant were incubated in the absence or presence of ionomycin for 45 minutes and RIPA extracts were probed on Western blots with C36 antibody. Cytosolic fractions were probed with antibodies against E-cadherin (C36), β-catenin or α-catenin. […] Furthermore, no soluble E-Cad/CTF2 was detected in mutant transfectants either in the presence or absence of ionomycin. Thus, PS1 binding to E-cadherin is required for the PS1/γ-secretase cleavage of E-cadherin and for the release of E-Cad/CTF2, β-catenin and α-catenin to the soluble cytosol.

[7] = tested on: Aβ40 and Aβ42; assay: Secreted Aβ ELISA in CHO cells expressing Swedish APP mutant; format: cell-based; conditions: transient transfection, vs vector cDNA, FIG. 4B
Protocol: CHO cells expressing Swedish APP mutant were transiently transfected with vector cDNA (vector), full length E-cadherin (E-cadherin), a cDNA construct encoding the transmembrane and ectodomain sequence of E-cadherin (EC0) or a cDNA expressing the entire cytoplasmic sequence of E-cadherin (CTF2). Secreted Aβ40 and Aβ42 were determined by ELISA. Each value is a mean±SD from three assays each performed in duplicate. […] Expression of transfected proteins in swCHO cells was monitored by Western blotting.

## CNC(=O)[C@H](Cc1c[nH]c2ccccc12)NC(=O)[C@@H](CC(=O)NO)CC(C)C [GM6001]
[1]; 30 minutes preincubation with GM6001 (2.5 μM), then STS 6 hours
  production of the 38 kDa fragment (E-Cad/CTF1): inhibited
[1]; antibody H108
  secreted 95 kDa fragment (E-Cad/NTF1), effect of MMP inhibitor in STS-treated cells: inhibited
[2]
  N-Cad/CTF1: decreased
  full length N-cadherin: increased

## [Cl-].[K+] [KCl]
[3]
  N-Cad/CTF2 production on stimulation: stimulated

## N[C@@H](CCC(=O)O)C(=O)O [L-glutamate, L-Glutamate]
[3]
  N-Cad/CTF2 production on stimulation: induced an increase in N-Cad/CTF2

## C[C@H](CCC(=O)O)C[C@H](C)C[C@H](C)C(=O)/C=C(\O)[C@H](C)C[C@H](C)C/C=C/[C@@H](C)[C@@H](O)[C@@H](C)[C@@H](O)C[C@@H]1CC[C@@](C)([C@H]2CC[C@@](C)([C@@H](C)O)O2)O1 [ionomycin]
[4]
  cell-cell adhesion: disrupted cell-cell adhesion
  plasma membrane staining of PS1, E-cadherin, β-catenin and α-catenin epitopes: decreased plasma membrane staining of all epitopes
[5]
  cytoskeletal (Triton X-100-insoluble) fraction of full-length E-cadherin and E-Cad/CTF1: time-dependent decrease
  cytoskeletal association (Triton X-100-insoluble fraction) of β-catenin and α-catenin: decreased
  soluble cytosolic E-Cad/CTF2: corresponding increase
  soluble cytosolic levels of β-catenin and α-catenin: significant increase
[3]; treatment of rat primary neuronal cultures with ionomycin
  N-Cad/CTF2: increased N-Cad/CTF2
[6]; cells expressing WT E-cadherin
  soluble E-Cad/CTF2, β-catenin and α-catenin in cytosolic fractions: significant increase
[6]; cells expressing mutant E-cadherin GGG759-761AAA
  soluble β- or α-catenin in cytosolic fractions: no ionomycin-induced increase

## CTF-2: cDNA expressing the entire cytoplasmic sequence of E-cadherin
[7]
  secreted Aβ40: significantly inhibited
  secreted Aβ42: significantly inhibited

## D(−)-2-amino-5-phosphonovalerate [D-APV]
[3]; D-APV (100 (unit uncertain)) applied 15 minutes before stimulation with KCl
  K+-induced increase in N-Cad/CTF2: inhibited
[3]; D-APV (100 (unit uncertain)) applied 15 minutes before stimulation with L-glutamate
  L-glutamate-induced increase in N-Cad/CTF2: blocked

## Z-DEVD-FMK
[1]; 30 minutes preincubation with Z-DEVD-FMK (50 μM), then STS 6 hours
  29 kDa fragment (E-Cad/CTT3): inhibited
